Data as given in PMC3459870, “Hit-to-Lead Development of the Chamigrane Endoperoxide Merulin A for the Treatment of African Sleeping Sickness” (PLoS ONE, 2012).
Read-outs that look alike come from different tables or passages of the source.

Legend:
T.b.b 427–221 = test: Live trypanosome fluorescence imaging; type: cell-based, Trypanosoma brucei brucei; settings: 20 µM, 2 hours, washed, 1 hour compound-free medium
Experimental: To explore the intracellular of distribution the coumarin-labeled derivative 30, parasites were incubated with 20 µM of 30 for 2 hours, washed once, and incubated in compound-free medium for 1 hour prior to microscopy. […] Although visualization of labeled merulin A in live cell imaging is an encouraging observation, further experiments are required to determine the precise localization and potential function of these compounds against T. brucei.
T.b.b 427–221 diluted to […] in complete HMI-9 medium were incubated with either 20 µM of compound 30, 20 µM of the free coumarin dye or 30 µM of compound 17 at 37°C for 2 hours. The parasites were then washed once with complete HMI-9 medium and incubated in compound-free complete HMI-9 medium for 1 additional hour. Parasites were directly mounted under coverslips and viewed with 100×-oil immersion on a Zeiss Laser Confocal microscope LSM 510 Meta.

[1] = tested on: Trypanosoma brucei brucei strain 427–221; test: Trypanosome screening assay (CellTiter-Glo ATP bioluminescence, 48 h); type: cell-based; settings: Trypanosoma brucei
Experimental: Trypanosoma brucei brucei strain 427–221 were grown at 37°C, 5% CO2 in HMI-9 medium containing 10% Fetal Bovine Serum, 10% Serum Plus (JRH Inc., Lenexa, KS,USA) and penicillin/streptomycin.
T.b.b. 427–221 were diluted to 2.10^4 per ml in complete HMI-9 medium and aliquoted in Greiner sterile 384-well flat white opaque culture plates using a WellMate cell dispenser from Matrix Tech. (Hudson, NH, USA). Test compounds were serially diluted in dimethyl sulfoxide (DMSO) and added to the assay plates with the robotic dispenser Biomek FXp liquid handler (Beckman Coulter). Thimerosal (2 µM final concentration) was added as a positive control and DMSO as a negative control (1% final concentration). Trypanosomes were incubated with compounds for 48 hours at 37°C with 5% CO2 before monitoring cell viability as previously described. Briefly, trypanosomes were lysed in the wells by adding 25 µL of CellTiter-GloTM (Promega). The lysed trypanosomes were placed on an orbital shaker at room temperature for 2 minutes. After lysis, the resulting ATP-bioluminescence was measured at room temperature using an Analyst HT plate reader (Molecular Devices). Percentage inhibition of parasite growth was calculated for each well as [1−(RLUx−RLU+)/(RLU−−RLU+)]*100 where RLUx, RLU+ and RLU− are respectively the Relative Light Units for each well, positive (thimerosal) and negative (DMSO) controls. A screening window coefficient, denoted Z′ factor, was used to evaluate the performance of the assay. The Z′ factor, calculated as 1−(3σc++3σc−)/(μc+−μc−) where σc+, σc−, μc+ and μc− are respectively the standard deviation and mean values of positive and negative controls, is reflective of the assay signal dynamic range and the data variation associated with signal measurement. IC50's were calculated using Prism (GraphPad).

HeLa cells = test: HeLa toxicity screening assay (nuclei count by imaging, 17 h); type: cell-based, human; settings: for IC50: Homo sapiens, HeLa
Experimental: (§1) HeLa cells were plated at a density of 2,000 cells per well into two 384 well clear bottom plates (Costar 3712) in DMEM with 10% FBS. After 24 hours incubation at 37°C with 5% CO2 the cells were pinned with 200 nL of a two-fold serial dilution of merulin analogues. After 17 hours of treatment at 37°C in 5% CO2 the plates were fixed with 4% formaldehyde and washed with PBS (BioTek ELx405). After 10 minutes in PBS with 0.5% TritonX-100 each plate was washed and blocked with 2% Bovine Serum Albumin in PBS. Nuclei were stained with Hoechst 33342 then washed and placed in 40 µL of PBS with 0.1% sodium azide. Plates were imaged using the ImageXpress Micro epifluorescent scope (Molecular Devices). MetaXpress software was used to quantify total number of cells and IC50s were calculated using Prism (GraphPad).

T98-G cells = test: Glioblastoma toxicity screening assay (nuclei count by imaging, 17 h); type: cell-based; settings: Homo sapiens, T98G; Figure 4
Experimental: as §1, with “T98-G cells (ATTC” for “HeLa cells were”, “T98-G cells (ATTC number: CRL-1690) were plated” for “HeLa cells were plated”

[2] = treatment of second stage infection (CNS infection); estimated; cited from earlier work

SMILES | IC50 ([1]; Table 3, read-out: T.b.b IC50) | fluorescence detected in live parasites (T.b.b 427–221) | IC50 (HeLa cells; Figure 4) | IC50 (T98-G cells) | also measured
CN(C)c1ccc2c(CC(=O)NCCNC(=O)CCc3ccccc3)cc(=O)oc2c1 [compound 31, N-(2-(2-(7-(dimethylamino)-2-oxo-2H-chromen-4-yl)acetamido)ethyl)-3-phenylpropanamide] | – | No fluorescence was detected | – | – | –
Nc1nc(N)nc(Nc2ccc([As]3SCC(CO)S3)cc2)n1 (stereo not drawn) [Melarsoprol, reference compound] | – | – | – | – | IC50 ([1]; read-out: T.b.b IC50): 0.002 µM; mortality rate due to drug-associated toxicity [2]: three to ten
CN(C)c1ccc2c(CC(=O)O[C@@H]3CC[C@@]45C[C@@H]3OO[C@]4(C)C(=O)CCC5(C)C)cc(=O)oc2c1 [compound 30, (3S,4R,6aS,10aS)-7,7,10a-trimethyl-10-oxooctahydro-3H-3,6a-methanobenzo[c][1,2]dioxocin-4-yl 2-(7-(dimethylamino)-2-oxo-2H-chromen-4-yl)acetate] | 0.42 µM | Diffuse cytoplasmic fluorescent signal | – | > 50 µM | SI (HeLa cells; HeLa vs T. brucei): > 125; IC50 (HeLa cells): > 50 µM
CC1(C)CCC(=O)[C@@]2(C)OO[C@H]3C[C@@]12CC[C@H]3OC(=O)c1cccc(-c2ccccc2)c1 [compound 15, (3S,4R,6aS,10aS)-7,7,10a-trimethyl-10-oxooctahydro-3H-3,6a-methanobenzo[c][1,2]dioxocin-4-yl [1,1′-biphenyl]-3-carboxylate] | – | – | > 50 µM | > 50 µM | IC50 ([1]; Figure 4, bloodstream form, read-out: T.b.b IC50): 0.24 µM
CC1(C)CCC(=O)[C@@]2(C)OO[C@H]3C[C@@]12CC[C@H]3OC(=O)Cc1cccc2ccccc12 [compound 17, (3S,4R,6aS,10aS)-7,7,10a-trimethyl-10-oxooctahydro-3H-3,6a-methanobenzo[c][1,2]dioxocin-4-yl 2-(naphthalen-1-yl)acetate] | – | – | 13 µM | > 50 µM | IC50 ([1]; bloodstream form, read-out: IC50 against T. brucei): 0.043 µM

More lines, main results first:

IC50 ([1]; Table 3, read-out: T.b.b IC50) | SMILES | fluorescence detected in live parasites (T.b.b 427–221) | IC50 (HeLa cells; Figure 4) | IC50 (T98-G cells) | also measured
4 µM | CC1(C)CCC(=O)[C@@]2(C)OO[C@@H]3C[C@@]12CC[C@H]3O [compound 1, merulin A] | No fluorescence was detected | > 50 µM | > 50 µM | –
0.06 µM | CC1(C)CCC(=O)[C@@]2(C)OO[C@H]3C[C@@]12CC[C@H]3OC(=O)C1COc2ccccc2O1 (stereo partly drawn) [compound 12, (3S,4R,6aS,10aS)-7,7,10a-trimethyl-10-oxooctahydro-3H-3,6a-methanobenzo[c][1,2]dioxocin-4-yl 2,3-dihydrobenzo[b][1,4]dioxine-2-carboxylate] | – | > 50 µM | > 50 µM | –
